#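 Test compounds were applied to cells in 96-well plates for 48 hours at 5 doses. GI50 is the concentration that inhibits growth by half. TGI is the concentration that stops growth completely.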
# Tests used:
# Experiment in all cases: NCI anticancer screen, dose series, 48 h
# HCT-116 colon = system: HCT-116 colon
# NCI-H226 lung = system: NCI-H226 lung
# NCI-H460 lung = system: NCI-H460 lung
# SF-295 CNS = system: SF-295 CNS
# SK-MEL-28 melanoma = system: SK-MEL-28 melanoma
# SK-MEL-5 melanoma = system: SK-MEL-5 melanoma
# SN12C renal = system: SN12C renal
# SW-620 colon = system: SW-620 colon
# U251 CNS = system: U251 CNS
# EKVX NSCLC = system: EKVX NSCLC
SMILES,GI50 (HCT-116 colon) [µM],TGI (HCT-116 colon) [µM],GI50 (NCI-H226 lung) [µM],TGI (NCI-H226 lung) [µM],GI50 (NCI-H460 lung) [µM],TGI (NCI-H460 lung) [µM],GI50 (SF-295 CNS) [µM],TGI (SF-295 CNS) [µM],GI50 (SK-MEL-28 melanoma) [µM],TGI (SK-MEL-28 melanoma) [µM],GI50 (SK-MEL-5 melanoma) [µM],TGI (SK-MEL-5 melanoma) [µM],GI50 (SN12C renal) [µM],TGI (SN12C renal) [µM],GI50 (SW-620 colon) [µM],TGI (SW-620 colon) [µM],GI50 (U251 CNS) [µM],TGI (U251 CNS) [µM],GI50 (EKVX NSCLC) [µM],TGI (EKVX NSCLC) [µM]
Nc1nc(N)c2nc3c(nc2n1)CCCCCCCCCC3,0.379,> 100,19,> 100,0.358,> 100,0.509,> 100,> 100,> 100,0.652,> 100,7.04,> 100,0.553,> 100,2.71,> 100,,
CCCCOC1OC(COC(=O)C(C)C)C(OC(=O)C(C)C)C(O)C1OC1OC(C)C(OC(=O)CCC)C(OC(=O)C(C)C)C1O (stereo not given),6.41,18.4,9.64,22.2,11.6,27.8,14.4,27.5,16.2,30,13.6,26.5,,,14.7,27.8,13.6,26.4,12.5,25.2
NC(=O)NC1C(C(=O)O)N(Cc2ccccc2)C(=O)N1Cc1ccccc1 (stereo not given),,> 100,,> 100,,> 100,,> 100,,> 100,,> 100,,,,> 100,,> 100,,> 100
CC([O-])=C1C(=O)c2ccccc2C1=O.CC([O-])=C1C(=O)c2ccccc2C1=O.CC[O-].CC[O-].[Ti+4],,,> 100,> 100,> 100,> 100,> 100,> 100,> 100,> 100,> 100,> 100,> 100,> 100,> 100,> 100,> 100,> 100,> 100,> 100
O=C1CCCCC12CCC/C2=N\O (stereo not given),,> 100,,> 100,,> 100,,,,> 100,,> 100,,> 100,,> 100,,> 100,,> 100
COc1cccc(N2C(=O)C3C4C=C5c6ccccc6N(c6ccccc6)C5(C3C2=O)[C@H]2C(=O)N(c3cccc(OC)c3)C(=O)[C@@H]42)c1 (stereo not given in full),,> 100,,> 100,,> 100,,> 100,,,,> 100,,> 100,,> 100,,> 100,,> 100
COc1ccc(C(=O)c2sc3nc(-c4cccs4)ccc3c2N)cc1OC,5.06,> 100,17.9,> 100,3.88,> 100,3.07,18.2,4.98,70.4,2.01,5.28,11,> 100,5.07,> 100,7.78,> 100,,
COCCOCCOCCOc1cccc2c1C(=O)c1cccc(OCCOCCOCCOC)c1C2=O,,> 100,,,,> 100,,> 100,,> 100,,> 100,,> 100,,> 100,,> 100,,> 100
COc1cc(C)c2sc3ccccc3c(=O)c2c1NCCN(C)C,3.73,13.6,2.3,6.81,3.26,12.3,6.25,19.5,1.83,3.42,1.67,3.08,5.41,20,3.39,14.5,3.66,14.1,,
CCOc1ccc2c(c1)c(CC(=O)O)cn2C,,> 100,,> 100,,> 100,,> 100,,> 100,,,,> 100,,,,> 100,,> 100
N#CC(C#N)=C/C=C(\Sc1ccc(F)cc1Cl)c1ccc(Cl)cc1,0.366,1.89,,,0.763,4.82,0.639,6.79,1.23,10.4,2.59,8.58,0.365,1.34,0.387,3.82,0.414,1.69,8.42,26.9
Cn1cc(C2=C(Nc3ccccc3)C(=O)NC2=O)c2ccccc21,16.4,> 25,> 25,> 25,> 25,> 25,> 25,> 25,> 25,> 25,> 25,> 25,> 25,> 25,> 25,> 25,> 25,> 25,,
Cc1cc(Cl)ccc1C(=O)c1ccc2ccccc2c1C(=O)O,,> 100,,> 100,,> 100,,> 100,,> 100,,> 100,,,,> 100,,> 100,,
COc1cnc2c(c1)C(=O)c1c-2n(CCCN2CCC(O)CC2)c(=O)c2cc(Cl)ccc12,0.0987,2.18,0.662,23.6,0.0371,1.27,0.165,1.67,16.7,35.7,1.92,20.4,,,0.253,2.62,0.0904,1.7,1.84,5.85
COc1ccc(NC(=O)CC(=O)n2nc(C)c(N=Nc3ccccc3C(=O)O)c2C)cc1,,> 100,,,,> 100,,> 100,,> 100,,> 100,,> 100,,> 100,,> 100,,> 100
Cn1cc(C(=O)c2ccccc2)cc(C(=O)c2ccccc2)c1=O,,,,> 100,,> 100,,> 100,,> 100,,> 100,,> 100,,> 100,,> 100,,> 100
COc1cc2ccnc3c(=C(SC)SC)c(=O)c(c1OC)c23,,,,,,> 100,,> 100,,26,,,,29.9,,31,,> 100,,

# Source: PubChem BioAssay (NCI)
